Assay results from patent publication US10662193B2, “Carbazole and carboline compounds for use in the diagnosis, treatment, alleviation or prevention of disorders associated with amyloid or amyloid-like proteins” (AC IMMUNE SA, priority 2014, dated 2020).

Tested on: tau tangles/Aβ plaques on AD brain sections
Experiment: Assay 1: direct staining of human Alzheimer's disease brain sections (fluorescence)
Type: binding
Parameters: key to Direct staining of tau tangles/Aβ plaques on AD brain sections at 100 μM / Direct staining of tau tangles on AD brain sections at 100 μM / Direct staining of Aβ plaques on AD brain sections at 100 μM / Direct staining of tau tangles on AD brain sections (footnote a: at 250 μM): − (No); +++ (strong); ++ (good); + (weak)
Experimental: Assay 1 (Fluorescence Based Assay):
Direct Binding of Compounds of this Invention to Human Alzheimer's Disease Brain Sections and/or Displacement of RefA and Compound B
Frozen sections with a thickness of […] from the amygdala of donors diagnosed with Braak stage V-VI Alzheimer's Disease (Braak, H.; Braak, E. Acta Neuropathol., 1991, 82, 239-259), were purchased from a commercial provider (Tissue Solutions) and kept at −80° C. until use.
Direct Staining of Human Alzheimer's Disease Brain Sections
Brain sections were encircled with pap pen liquid blocker to reduce the volume of solution for the different incubations. Sections were fixed for 15 min at 4° C. with 4% paraformaldehyde and washed three times 5 minutes with PBS at room temperature. […] To reduce the auto-fluorescence of the tissue, the sections were incubated in a solution of 0.1% Sudan Black (Sigma 199664) in 70% ethanol for 15 min at room temperature in the dark, washed four times for 5 minutes with PBS, and mounted using ProLong Gold Antifade reagent (Invitrogen P36930). Sections were then analyzed on the Nikon Eclipse Ti microscope to detect staining and imaged using Nikon DS-Fi2 camera and NIS-Element AR4.13.1 software.

[1] = 100 μM compound, human AD brain sections, fluorescence, cell does not say tangles or plaques

| Compound | Direct staining of tau tangles/Aβ plaques on AD brain sections at 100 μM [1] | Direct staining of Aβ plaques on AD brain sections at 100 μM (100 μM compound) | Direct staining of tau tangles on AD brain sections at 100 μM (100 μM compound) | also measured |
| --- | --- | --- | --- | --- |
| Cn1c2c(c3ccc(Nc4ccc(F)c(F)c4)nc31)C(=O)N(CCCN)CC2 [213 Step F] |  |  |  | Direct staining of tau tangles/Aβ plaques on AD brain sections at 100 μM (100 μM in 50% ethanol, 20 min, "(tangles)" beside the symbol = tangles stained): − |
| COc1ccc(/C=C/c2ccc3nc(N4CCOCC4)sc3c2)cc1 [Compound B, reference compound] |  |  |  | Direct staining of Aβ plaques on AD brain section (100 μM, FIG. 2): Direct staining of Aβ plaques |
| Cn1c2ccncc2c2ccc(Nc3ccc(F)cc3)nc21 [Example 18] | − |  |  |  |
| Cn1c2ccncc2c2ccc(Nc3ccc(OCCF)cc3)nc21 [Example 20] |  | + (plaques) |  |  |
| Cn1c2ccncc2c2ccc(Nc3ccc(C#N)c(OCCF)c3)nc21 [Example 21] | − |  |  |  |
| Cn1c2ccncc2c2ccc(Nc3ccc(F)nc3)nc21 [Example 22] |  | + (tangles) + (plaques | + (tangles) + (plaques |  |
| COc1cc(Nc2ccc3c4cnccc4n(C)c3n2)ccn1 [Example 24] |  | + (plaques) |  |  |
| Cn1c2ccncc2c2ccc(N3CCN(c4ccc(F)cc4)CC3)nc21 [Example 25] |  | + (tangles) + (plaques) | + (tangles) + (plaques) |  |
| CN(CCF)c1cccc(Nc2ccc3c4cnccc4n(C)c3n2)c1 [Example 26] |  | +++ (plaques) |  |  |
| Fc1ccc(Nc2ccc3c(n2)[nH]c2ccncc23)cc1F [Example 27] |  | + (tangles) + (plaques) | + (tangles) + (plaques) |  |
| Cn1c2ccncc2c2ccc(Nc3cncc(F)c3)nc21 [Example 29] |  |  | + (tangles) |  |
| COc1ccc(Nc2ccc3c4cnccc4n(C)c3n2)cc1F [Example 30] |  | + (tangles) + (plaques) | + (tangles) + (plaques) |  |
| COc1cc(Nc2ccc3c4cnccc4n(C)c3n2)ccc1F [Example 31] |  | + (tangles) + (plaques) | + (tangles) + (plaques) |  |
| Cn1c2ccncc2c2ccc(Nc3cccc(N4CC(F)C4)c3)nc21 [Example 32] |  | + (tangles) + (plaques) | + (tangles) + (plaques) |  |
| Cn1c2ccncc2c2ccc(Nc3cccc(N4CCC(F)CC4)c3)nc21 [Example 33] |  | + (tangles) + (plaques) | + (tangles) + (plaques) |  |
| Cc1ccc(Nc2ccc3c4cnccc4n(C)c3n2)cc1OCCF [Example 34] |  |  | +++ (tangles) |  |
| Cn1c2ccncc2c2ccc(Nc3cccc(C(F)F)c3)nc21 [Example 35] |  | ++ (tangles) ++ (plaques) | ++ (tangles) ++ (plaques) |  |
| Cc1ccc(Nc2ccc3c4cnccc4n(C)c3n2)cc1OC(F)F [Example 36] |  | + (plaques) |  |  |
| Fc1ccc(Nc2ccc3c(c2)[nH]c2ccncc23)cc1F [Example 37] |  |  | + (tangles) |  |
| Cn1c2ccncc2c2ccc(Nc3ccc(F)c(F)c3)cc21 [Example 39] |  |  | ++ (tangles) |  |

| Compound | Direct staining of tau tangles/Aβ plaques on AD brain sections at 100 μM [1] | Direct staining of Aβ plaques on AD brain sections at 100 μM (100 μM compound) | Direct staining of tau tangles on AD brain sections at 100 μM (100 μM compound) | also measured |
| --- | --- | --- | --- | --- |
| CN(C)c1cc(Nc2ccc3c4cnccc4n(C)c3n2)ccc1F [Example 41] | − |  |  |  |
| CNc1cc(Nc2ccc3c4cnccc4n(C)c3n2)ccc1F [Example 42] |  | +++ (plaques) |  |  |
| Cn1c2ccncc2c2ccc(Nc3cccc(SCCF)c3)nc21 [Example 43] |  | + (tangles) + (plaques) | + (tangles) + (plaques) |  |
| Cc1nn(CCF)c(C)c1Nc1ccc2c3cnccc3n(C)c2n1 [Example 49] |  |  | + (tangles) |  |
| Cn1c2ccncc2c2ccc(Nc3ccc(OCCF)nc3)nc21 [Example 50] |  | + (tangles) + (plaques) | + (tangles) + (plaques) |  |
| Cn1c2ccncc2c2ccc(Nc3cccc(OCCOCCF)n3)nc21 [Example 56] |  |  | ++ (tangles) |  |
| Cn1c2ccncc2c2ccc(Nc3ccc(F)c(OCCF)c3)nc21 [Example 57] |  |  | ++ (tangles) |  |
| Cn1c2ccncc2c2ccc(Nc3ccnc(OCCF)c3)nc21 [Example 58] |  | +++ (plaques) |  |  |
| Cn1c2ccncc2c2ccc(Nc3cccc(OCCOCCOCCF)n3)nc21 [Example 60] |  | ++ (tangles) ++ (plaques) | ++ (tangles) ++ (plaques) |  |
| Cn1c2ccncc2c2ccc(Nc3ncc(C#N)s3)nc21 [Example 61] | − |  |  |  |
| Cn1c2ccncc2c2ccc(Nc3ccc(OCCF)cn3)nc21 [Example 62] |  |  | + (tangles) |  |
| Cn1c2ccncc2c2ccc(Nc3csc(OCCF)n3)nc21 [Example 69] |  |  | ++ (tangles) |  |
| Cn1c2ccncc2c2ccc(Nc3cccc(NCCF)c3)nc21 [Example 71] |  | + (tangles) + (plaques) | + (tangles) + (plaques) |  |
| Cn1c2ccncc2c2ccc(Nc3ccc(NCCF)cn3)nc21 [Example 79] | − |  |  |  |
| CN1CCc2c(c3ccc(Nc4cccc(NCCF)n4)nc3n2C)C1=O [Example 81] | − |  |  |  |
| Cn1c2c(c3ccc(Nc4ccc(NCCF)cn4)nc31)C(=O)NCC2 [Example 82] |  |  | + (tangles) |  |
| CN1CCc2c(c3ccc(Nc4ccc(NCCF)cn4)nc3n2C)C1=O [Example 83] |  |  | + (tangles) |  |
| CN1CCc2c(c3ccc(Nc4cccc(NCCF)c4)nc3n2C)C1=O [Example 84] | − |  |  |  |
| Cn1c2ccncc2c2ccc(Nc3cncc(OCCCF)c3)nc21 [Example 97] |  |  | +++ (tangles) |  |
| Cn1c2ccncc2c2ccc(Nc3ccc(F)c([N+](=O)[O-])c3)nc21 [Example 98] | − |  |  |  |

| Compound | Direct staining of tau tangles/Aβ plaques on AD brain sections at 100 μM [1] | Direct staining of Aβ plaques on AD brain sections at 100 μM (100 μM compound) | Direct staining of tau tangles on AD brain sections at 100 μM (100 μM compound) | also measured |
| --- | --- | --- | --- | --- |
| Cn1c2ccncc2c2ccc(Nc3ccc([N+](=O)[O-])c(F)c3)nc21 [Example 99] | − |  |  |  |
| Cn1c2ccncc2c2ccc(Nc3cc(CCF)ccn3)nc21 [Example 148] |  |  | ++ (tangles) |  |
| Cn1c2ccncc2c2ccc(Nc3cccc(CCF)n3)nc21 [Example 149] |  |  | ++ (tangles) |  |
| Cn1c2ccncc2c2ccc(N3CCC[C@H](F)C3)nc21 [Example 158] |  |  | ++ (tangles) |  |
| Cn1c2ccncc2c2ccc(N3CC[C@H](F)C3)nc21 [Example 160] | − |  |  |  |
| Cn1c2cccnc2c2ccc(Nc3cccc(OCCF)c3)nc21 [Example 163] |  |  | ++ (tangles) |  |
| FCCN(c1ccc(F)c(F)c1)c1ccc2c3cnccc3n(CCF)c2n1 [Example 164] |  | + (plaques) |  |  |
| OCCn1c2ccncc2c2ccc(Nc3cccc(OCCF)c3)nc21 [Example 165] | − |  |  |  |
| OCCn1c2ccncc2c2ccc(Nc3ccc(F)c(F)c3)nc21 [Example 166] | − |  |  |  |
| COCCOCCn1c2ccncc2c2ccc(Nc3cccc(OCCF)c3)nc21 [Example 167] | − |  |  |  |
| Cn1c2c(c3ccc(Nc4ccc(N5CCOCC5)cc4)nc31)C(=O)NCC2 [Example 173] | − |  |  |  |
| Cn1c2c(c3ccc(Nc4ccc(C#N)c(OCCF)c4)nc31)C(=O)NCC2 [Example 176] | − |  |  |  |
| Cn1c2c(c3ccc(Nc4ccc(OCCF)cc4)nc31)C(=O)NCC2 [Example 177] | − |  |  |  |
| Cn1c2c(c3ccc(Nc4cccc(OCCF)c4)nc31)C(=O)NCC2 [Example 178] | − |  |  |  |
| Cn1c2c(c3ccc(Nc4ccc(C#N)c(F)c4)nc31)C(=O)NCC2 [Example 179] |  |  | + (tangles) |  |
| COc1cc(Nc2ccc3c4c(n(C)c3n2)CCNC4=O)ccc1F [Example 180] | − |  |  |  |
| COc1cc(Nc2ccc3c4c(n(C)c3n2)CCNC4=O)ccn1 [Example 181] |  |  | + (tangles) |  |
| CN1CCc2c(c3ccc(Nc4ccc(F)nc4)nc3n2C)C1=O [Example 182] | − |  |  |  |
| Cn1c2c(c3ccc(Nc4ccc(F)c(F)c4)nc31)C(=O)N(CCF)CC2 [Example 183] |  | + (plaques) |  |  |
